Measurements reported in ChEMBL document CHEMBL3885861, “Open TG-GATES”.

Species: Rattus norvegicus
Assay: Open TG-GATES - Regimen: Single
Type: toxicity, organism-based, Sprague-Dawley
Parameters: regimen Single, gender Male, age 6 weeks
Details: in vivo, po, 100 mg/kg, route gavage, dose level Middle; for APTT / Bas / Eos / Fbg / Hb / Ht / Lym / MCH / MCHC / MCV / Mono / Neu / PT / Plat / RBC / Ret / WBC: tissue Blood; for KIDNEY_L / KIDNEY_R / KIDNEY_TOTAL: tissue Kidney; for LIVER: tissue Liver

COc1cc([C@@H]2c3cc4c(cc3[C@@H](O[C@@H]3O[C@@H]5CO[C@@H](C)O[C@H]5[C@H](O)[C@H]3O)[C@H]3COC(=O)[C@H]23)OCO4)cc(OC)c1O [ETOPOSIDE] gave a gamma-GTP (6 h, tissue Plasma) of 0.8 IU/L, a TERMINAL_BW (9 h) of 197 g and an APTT (9 h) of 16.9 s. The Bas (9 h) was 0%, the Eos (9 h) was 1% and the Fbg (9 h) was 206.8 mg/dL. It also gave a Hb (9 h) of 13 g/dL, a Ht (9 h) of 38.8% and a Lym (9 h) of 77.8%. For the same molecule, the MCH (9 h) was 21.5 pg, the MCHC (9 h) was 33.5% and the MCV (9 h) was 64.3 fL. For the same molecule, the Mono (9 h) was 6.8%, the Neu (9 h) was 14.6% and the PT (9 h) was 11.2 s. The Plat (9 h) was 109 x10_4/uL, the RBC (9 h) was 604.2 x10_4/ul and the Ret (9 h) was 8.2%. The WBC (9 h) was 72.5 x10_2/uL, the KIDNEY_L (9 h) was 0.9 g and the KIDNEY_R (9 h) was 1 g. It also gave a KIDNEY_TOTAL (9 h) of 1.9 g, an LIVER (9 h) of 8.5 g and an ALP (9 h, tissue Plasma) of 842.6 IU/L. The ALT (9 h, tissue Plasma) was 33.4 IU/L, the AST (9 h, tissue Plasma) was 63.6 IU/L and the BUN (9 h, tissue Plasma) was 12.8 mg/dL. The CRE (9 h, tissue Plasma) was 0.5 mg/dL, the Ca (9 h, tissue Plasma) was 10.4 mg/dL and the Cl (9 h, tissue Plasma) was 105.8 meq/L. The DBIL (9 h, tissue Plasma) was 0.048 mg/dL, the GLC (9 h, tissue Plasma) was 199 mg/dL and the IP (9 h, tissue Plasma) was 10.6 mg/dL. For the same molecule, the K (9 h, tissue Plasma) was 4.6 meq/L, the LDH (9 h, tissue Plasma) was 78.4 IU/L and the Na (9 h, tissue Plasma) was 143.2 meq/L. The PL (9 h, tissue Plasma) was 114 mg/dL, the RALB (9 h, tissue Plasma) was 3.5 g/dL and the TBIL (9 h, tissue Plasma) was 0.4 mg/dL. The TC (9 h, tissue Plasma) was 67.6 mg/dL, the TG (9 h, tissue Plasma) was 27.6 mg/dL and the TP (9 h, tissue Plasma) was 5.4 g/dL. It also gave a gamma-GTP (9 h, tissue Plasma) of 1.6 IU/L, a TERMINAL_BW (24 h) of 207.9 g and an APTT (24 h) of 16 s. The Bas (24 h) was 0%, the Eos (24 h) was 1% and the Fbg (24 h) was 206 mg/dL. For the same molecule, the Hb (24 h) was 13.4 g/dL, the Ht (24 h) was 39.8% and the Lym (24 h) was 86.4%. It also gave an MCH (24 h) of 21.4 pg, an MCHC (24 h) of 33.7% and an MCV (24 h) of 63.4 fL. The Mono (24 h) was 4.8%, the Neu (24 h) was 8% and the PT (24 h) was 11.7 s. For the same molecule, the Plat (24 h) was 113.3 x10_4/uL, the RBC (24 h) was 628.4 x10_4/ul and the Ret (24 h) was 7.4%. For the same molecule, the WBC (24 h) was 74.6 x10_2/uL, the KIDNEY_L (24 h) was 1 g and the KIDNEY_R (24 h) was 1 g. The KIDNEY_TOTAL (24 h) was 2 g, the LIVER (24 h) was 9.3 g and the ALP (24 h, tissue Plasma) was 999.2 IU/L. It also gave an ALT (24 h, tissue Plasma) of 30.4 IU/L, an AST (24 h, tissue Plasma) of 64.8 IU/L and a CRE (24 h, tissue Plasma) of 0.5 mg/dL. It also gave a Ca (24 h, tissue Plasma) of 10.9 mg/dL, a Cl (24 h, tissue Plasma) of 104.8 meq/L and a DBIL (24 h, tissue Plasma) of 0.028 mg/dL. It also gave a GLC (24 h, tissue Plasma) of 192.4 mg/dL, an IP (24 h, tissue Plasma) of 9.1 mg/dL and a K (24 h, tissue Plasma) of 5 meq/L. It also gave an LDH (24 h, tissue Plasma) of 94.6 IU/L, a Na (24 h, tissue Plasma) of 140.6 meq/L and a PL (24 h, tissue Plasma) of 134.4 mg/dL. It also gave an RALB (24 h, tissue Plasma) of 3.6 g/dL, a TBIL (24 h, tissue Plasma) of 0.3 mg/dL and a TC (24 h, tissue Plasma) of 78.2 mg/dL. The TG (24 h, tissue Plasma) was 60 mg/dL, the TP (24 h, tissue Plasma) was 5.5 g/dL and the gamma-GTP (24 h, tissue Plasma) was 1.2 IU/L.
